Experimental data taken from US12622918B2, “Formulations and dosages for administering a compound that inhibits MCL1 protein” (Amgen Inc., priority 2019, dated 2026).

Legend:
Pharmacokinetics in rats = conditions: male, Sprague Dawley, rat, in vivo, read-out: mean terminal elimination half-life (t1/2,z) (converted)
Source text: (§1) The pharmacokinetics (PK) of the compound of Formula I after single intravenous (IV) or oral administration were characterized in male CD1 mice, female athymic nude mice, male Nu/Nu mice, male Sprague Dawley rats, male beagle dogs, and male cynomolgus monkeys. The clearance (CL) of the compound was low in mice, rats, dogs, and monkeys relative to their hepatic blood flow. Volume of distribution at steady state (Vss) in mice, rats, dogs, and monkeys was variable across the species.

KMS-28-BM = assay: Cell viability (CellTiterGlo), KMS-28-BM; type: cell-based; conditions: Multiple myeloma, 24 hours, 10% FBS, read-out: AMS 176 IC50
Pharmacokinetics in dogs = type: in vivo
Source text: as §1

[1] = molecular target: T1, MCL1-BAK protein-protein interaction (Homo sapiens, UniProt Q07820); assay: MCL1-BAK protein-protein interaction PD assay, HEK 293M MCL1(1-327)-Luc/BAK-Luc Matrigel plug model in mice; type: in vivo; conditions: for inhibition of MCL1-BAK protein-protein interaction, as measured by luciferase activity: 2-, vs vehicle p<0.0025, female athymic nude mice
T1 construct: human MCL1 encoding amino acids 1-327 and full-length human BAK; expressed in transfected cells; host or cells: HEK 293M cells, stably transfected, in Matrigel plugs in female athymic nude mice
Source text: The inhibition of MCL1-BAK protein-protein interaction was used as a pharmacodynamics (PD) assay in HEK 293M cells stably transfected so as to express the N-terminal fragment of human MCL1 encoding amino acids 1-327 and full-length human BAK, linked to the N- and C-terminal fragments of firefly luciferase, respectively (interaction between MCL1 [1-327] and BAK results in the complementation of the C- and N-terminal fragments of luciferase and the formation of active luciferase).

U937 = assay: Cell viability (CellTiterGlo), U937; type: cell-based; conditions: Homo sapiens, U-937; U937, NHL; 24 hours; 10% FBS; read-out: AMS 176 IC50
SU-OHL-6 = assay: Cell viability (CellTiterGlo), SU-OHL-6; type: cell-based; conditions: SU-OHL-6, NHL; 24 hours; 10% FBS; read-out: AMS 176 IC50
Toledo = assay: Cell viability (CellTiterGlo), Toledo; type: cell-based; conditions: Homo sapiens, NHL, 24 hours, 10% FBS, read-out: AMS 176 IC50
TF-1 = assay: Cell viability (CellTiterGlo), TF-1; type: cell-based; conditions: Homo sapiens; TF-1, AML; 24 hours; 10% FBS; read-out: AMS 176 IC50
[2] = system: Molm13-Luc orthotopic tumors; assay: MOLM-13 Luc acute myeloid leukemia orthotopic model; type: in vivo; conditions: for TGI (tumor burden, whole body luminescence): female NSG mice
Procedure: On day 0, 70 female NSG mice were injected IV with 5×10^4 human Molm13-Luc AML tumor cells.

MM1S = assay: Cell viability (CellTiterGlo), MM1S; type: cell-based; conditions: Homo sapiens, MM1.S, Multiple myeloma, 24 hours, 10% FBS, read-out: AMS 176 IC50
RL = assay: Cell viability (CellTiterGlo), RL; type: cell-based; conditions: Homo sapiens, NHL, 24 hours, 10% FBS, high dose 20 μM, read-out: AMS 176 IC50
KMS-12-PE = assay: Cell viability (CellTiterGlo), KMS-12-PE; type: cell-based; conditions: Homo sapiens, Multiple myeloma, 24 hours, 10% FBS, read-out: AMS 176 IC50
Monkey MCL1 = Monkey MCL1 (Macaca fascicularis, UniProt A0A2K5W0Y7); assay: Cell-free TR-FRET BIM-binding assay, Monkey MCL1; conditions: read-out: IC50 (Mean ± SD) of AMG 176 With Respect to Binding; BIM-binding partner Monkey MCL1; n = 3
Dog MCL1 = Dog MCL1 (Canis lupus familiaris, UniProt Q8HYS5); assay: Cell-free TR-FRET BIM-binding assay, Dog MCL1; conditions: BIM-binding partner Dog MCL1; n = 3
[3] = in vivo
Mouse MCL1 = Mouse MCL1 (Mus musculus, UniProt P97287); assay: Cell-free TR-FRET BIM-binding assay, Mouse MCL1; conditions: BIM-binding partner Mouse MCL1; n = 3
[4] = system: subjects with relapsed/refractory acute myelogenous leukemia; assay: Phase 1 FIH study, acute myeloid leukemia part 3; type: in vivo, human
Procedure: In part 3, 10 total subjects were enrolled across 2 cohorts, with doses of 60 mg/m^2 or 120 mg/m^2.

HEL 92.1.7 = assay: Cell viability (CellTiterGlo), HEL 92.1.7; type: cell-based; conditions: Homo sapiens; HEL 92.1.7, AML; 24 hours; 10% FBS; read-out: AMS 176 IC50
[5] = Pharmacokinetics in monkeys; conditions: male, monkey, in vivo, read-out: mean terminal elimination half-life (t1/2,z) (converted)
Source text: as §1

MM1R = assay: Cell viability (CellTiterGlo), MM1R; type: cell-based; conditions: MM.1R, Multiple myeloma, 24 hours, 10% FBS, read-out: AMS 176 IC50
rat = assay: 28-day GLP rat IV infusion toxicology study; type: in vivo
Source text: The doses selected for the 28-day IV rat and dog toxicology studies were intended to characterize the toxicity of the compound of Formula I and provide data to support a starting dose in the first-in-human (FIH) study. An IV route of administration and a dosing schedule of 2 days on/5 days off was used to support the anticipated clinical route and dosing schedule.

rat blood = assay: In vitro hemolysis of whole blood, rat; conditions: 0.048, 0.12, 0.24, 1.2, and 2.4 mg/mL, vehicles containing hydroxypropyl-β-cyclodextrin

T1 sequence (Q07820 1-327): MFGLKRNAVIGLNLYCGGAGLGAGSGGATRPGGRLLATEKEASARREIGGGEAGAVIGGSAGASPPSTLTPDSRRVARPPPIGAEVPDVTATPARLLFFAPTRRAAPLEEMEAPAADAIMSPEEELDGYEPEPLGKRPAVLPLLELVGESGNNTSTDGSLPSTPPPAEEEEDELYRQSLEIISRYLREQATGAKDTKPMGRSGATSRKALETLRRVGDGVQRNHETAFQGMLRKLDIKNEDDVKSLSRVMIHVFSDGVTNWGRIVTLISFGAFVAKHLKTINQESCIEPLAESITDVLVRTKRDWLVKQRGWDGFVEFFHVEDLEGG
Sequence of Monkey MCL1 (A0A2K5W0Y7 1-346): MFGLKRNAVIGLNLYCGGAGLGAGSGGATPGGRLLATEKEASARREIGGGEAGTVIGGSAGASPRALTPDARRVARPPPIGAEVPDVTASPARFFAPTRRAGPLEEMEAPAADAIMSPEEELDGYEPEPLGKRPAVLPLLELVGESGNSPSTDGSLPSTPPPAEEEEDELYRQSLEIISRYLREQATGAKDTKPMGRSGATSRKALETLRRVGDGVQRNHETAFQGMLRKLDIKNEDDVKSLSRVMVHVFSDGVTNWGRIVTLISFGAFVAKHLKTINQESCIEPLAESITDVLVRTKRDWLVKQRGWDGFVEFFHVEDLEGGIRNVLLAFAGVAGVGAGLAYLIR
Sequence of Dog MCL1 (Q8HYS5 whole entry): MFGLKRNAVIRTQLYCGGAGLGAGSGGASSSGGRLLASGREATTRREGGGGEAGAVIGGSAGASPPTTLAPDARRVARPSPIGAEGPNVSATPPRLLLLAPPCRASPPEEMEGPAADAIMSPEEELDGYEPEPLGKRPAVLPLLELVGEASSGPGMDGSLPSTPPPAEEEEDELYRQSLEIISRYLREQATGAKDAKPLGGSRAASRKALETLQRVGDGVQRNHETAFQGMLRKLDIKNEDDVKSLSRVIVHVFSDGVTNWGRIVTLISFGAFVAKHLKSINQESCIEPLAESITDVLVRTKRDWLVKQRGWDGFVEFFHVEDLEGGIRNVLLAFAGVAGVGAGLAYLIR
Sequence of Mouse MCL1 (P97287 whole entry): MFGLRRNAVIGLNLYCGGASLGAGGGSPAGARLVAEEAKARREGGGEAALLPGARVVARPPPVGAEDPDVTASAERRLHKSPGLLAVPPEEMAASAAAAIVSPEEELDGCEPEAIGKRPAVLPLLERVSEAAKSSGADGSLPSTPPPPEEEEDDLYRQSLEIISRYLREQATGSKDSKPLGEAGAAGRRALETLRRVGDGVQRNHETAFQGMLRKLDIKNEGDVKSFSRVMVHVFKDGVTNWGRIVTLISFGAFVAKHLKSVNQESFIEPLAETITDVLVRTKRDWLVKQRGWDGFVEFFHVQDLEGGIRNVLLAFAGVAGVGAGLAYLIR

## CO[C@H]1/C=C/C[C@H](C)[C@@H](C)S(=O)(=O)NC(=O)c2ccc3c(c2)N(C[C@@H]2CC[C@H]21)C[C@@]1(CCCc2cc(Cl)ccc21)CO3 [AMG 176]
Pharmacokinetics in rats
  half-life: 19.5 h
KMS-28-BM
  IC50: 205 nM
Pharmacokinetics in dogs
  mean terminal elimination half-life (t1/2,z): 10.8 h
[1]; 3 mg/kg, 8-, 12-, and 24-hour time points
  inhibition of MCL1-BAK protein-protein interaction, as measured by luciferase activity: Statistically significant inhibition
[1]; 10 mg/kg, 4-, 8-, and 12-hour time points
  inhibition of MCL1-BAK protein-protein interaction, as measured by luciferase activity: Statistically significant inhibition
[1]; 30 mg/kg, 4-, 8-, 12-, and 24-hour time points
  inhibition of MCL1-BAK protein-protein interaction, as measured by luciferase activity: Statistically significant inhibition
[1]; summary statement
  inhibition of the interaction between human MCL1 and human BAK in vivo: dose-dependent inhibition
U937
  IC50: 474 nM
SU-OHL-6
  IC50: 165 nM
Toledo
  IC50: 9700 nM
TF-1
  IC50: 2090 nM
[2]; 30 mg/kg oral QD2
  TGI (tumor burden, whole body luminescence): 28%
[2]; 60 mg/kg oral QD2
  TGI (tumor burden, whole body luminescence): 69%
[2]; 100 mg/kg oral QD
  TGI (tumor burden, whole body luminescence): 86%
[2]; all AMG 176 groups
  overt toxicity by changes in body weight: No evidence of overt toxicity
MM1S
  IC50: 5120 nM
RL
  IC50: > 20000 nM
KMS-12-PE
  IC50: 131 nM
Monkey MCL1
  IC50: 0.182 nM
Dog MCL1
  IC50: 0.284 nM
[3]
  phototoxicity: not phototoxic
Mouse MCL1
  IC50: 49.8 nM
[4]; AML part 3
  Grade 3 adverse events, subjects: 70%
  Serious adverse events, subjects: 60%
  adverse events considered related to AMG 176, subjects: 40%
  adverse events leading to discontinuation of investigational product, subjects: 20%
  fatal adverse events: No fatal adverse events occurred
  febrile neutropenia leading to discontinuation: 10%
  grade 4 adverse events, subjects: 20%
  related increased blood bilirubin: 20%
  related nausea: 20%
  superior vena cava syndrome leading to discontinuation: 10%
[4]; AML part 3, 10 subjects
  adverse events, subjects: 80%
[4]; AML part 3, any grade
  anemia, subjects: 20%
  hypokalemia, subjects: 30%
  hypomagnesemia, subjects: 20%
  increased blood bilirubin, subjects: 20%
  nausea, subjects: 30%
  peripheral edema, subjects: 30%
  pyrexia, subjects: 20%
  vomiting, subjects: 20%
[4]; AML part 3, both cohorts combined
  anemia of grade 3 or higher: 20%
[4]; AML, 10 subjects, 60 or 120 mg/m^2, preliminary
  exposures (Cmax and AUC) versus dose: generally increased with increasing doses
HEL 92.1.7
  IC50: 5990 nM
[5]
  half-life: 1.66 h
MM1R
  IC50: 1140 nM
rat
  finding related to morbidity and mortality: mucosal epithelial degeneration in the small and large intestines
rat; IV infusion, 28-day
  dose with mortality: 120 mg/kg
rat; IV infusion, 2 days on/5 days off, 28-day
  severely toxic dose in 10% of animals (STD10): 60 mg/kg
Rat blood
  hemolysis of whole blood: cased hemolysis
